Laboratory results published in US20050255458A1, “Drug discovery assays based on the biology of chronic disease” (priority 2002, published 2005).
Read-outs that look alike come from different tables or passages of the source.

Experiments:
U937 = settings: vs controls, p<0.05; cited from earlier work
HIV-1 [1] = assay: HIV-1 DNA load change over 80 weeks (Bruisten); format: in vivo, human; settings: monotherapy; ddC calculated as ddC+AZT minus AZT
HIV-1 [2] = tested on: HIV-1; set-up: key to Effect on HIV DNA: ↓↓: Two arrows indicates larger change; settings: cited from earlier work
HIV-1 [3] = assay: Total HIV-1 LTR DNA by PCR (Pauza 1994); settings: scale of 1 to 5 (1 is lowest)
HIV-1 [4] = assay: HIV-1 DNA regression on years since seroconversion (Chun 1997); settings: therapy including the drug; HIV-1 DNA per 10^6 resting CD4+ T-cells
[5] = in vivo; cited from earlier work
c-Rel/p65 = settings: cited from earlier work
TF [6] = settings: cited from earlier work
TF [7] = settings: 0.5 mg/kg/day, cited from earlier work
TF [8] = settings: cited from earlier work; remark: listed apart in the source
leukocytes [9] = settings: low concentrations, 20 hours; cited from earlier work
human lymphocytes = settings: 0.1 and 1 mM; cited from earlier work
leukocytes [10] = settings: 5-20 mg/kg/day, oral; cited from earlier work
LDLR(−/−) mice = settings: ≈5 mg/kg/day, 18 weeks; cited from earlier work
[11] = combination treatment including the drug; cited from earlier work
CD18 = settings: 10^−8 M for 10 min, vs unstimulated cells; cited from earlier work
Lp(a) = settings: 2 g administered daily; cited from earlier work
NF-κB [12] = settings: rabbit, in vivo; cited from earlier work
apoE(−/−) mice [13] = settings: ramipril 1 mg/kg/day, 10 weeks; cited from earlier work
ACE [14] = biological target: T1, ACE (Homo sapiens, UniProt P12821); set-up: from tissue; host or cells: patients, in vivo; settings: 5 or 10 mg/day, 4 years, vs placebo; cited from earlier work
T1 sequence (P12821 30-1306): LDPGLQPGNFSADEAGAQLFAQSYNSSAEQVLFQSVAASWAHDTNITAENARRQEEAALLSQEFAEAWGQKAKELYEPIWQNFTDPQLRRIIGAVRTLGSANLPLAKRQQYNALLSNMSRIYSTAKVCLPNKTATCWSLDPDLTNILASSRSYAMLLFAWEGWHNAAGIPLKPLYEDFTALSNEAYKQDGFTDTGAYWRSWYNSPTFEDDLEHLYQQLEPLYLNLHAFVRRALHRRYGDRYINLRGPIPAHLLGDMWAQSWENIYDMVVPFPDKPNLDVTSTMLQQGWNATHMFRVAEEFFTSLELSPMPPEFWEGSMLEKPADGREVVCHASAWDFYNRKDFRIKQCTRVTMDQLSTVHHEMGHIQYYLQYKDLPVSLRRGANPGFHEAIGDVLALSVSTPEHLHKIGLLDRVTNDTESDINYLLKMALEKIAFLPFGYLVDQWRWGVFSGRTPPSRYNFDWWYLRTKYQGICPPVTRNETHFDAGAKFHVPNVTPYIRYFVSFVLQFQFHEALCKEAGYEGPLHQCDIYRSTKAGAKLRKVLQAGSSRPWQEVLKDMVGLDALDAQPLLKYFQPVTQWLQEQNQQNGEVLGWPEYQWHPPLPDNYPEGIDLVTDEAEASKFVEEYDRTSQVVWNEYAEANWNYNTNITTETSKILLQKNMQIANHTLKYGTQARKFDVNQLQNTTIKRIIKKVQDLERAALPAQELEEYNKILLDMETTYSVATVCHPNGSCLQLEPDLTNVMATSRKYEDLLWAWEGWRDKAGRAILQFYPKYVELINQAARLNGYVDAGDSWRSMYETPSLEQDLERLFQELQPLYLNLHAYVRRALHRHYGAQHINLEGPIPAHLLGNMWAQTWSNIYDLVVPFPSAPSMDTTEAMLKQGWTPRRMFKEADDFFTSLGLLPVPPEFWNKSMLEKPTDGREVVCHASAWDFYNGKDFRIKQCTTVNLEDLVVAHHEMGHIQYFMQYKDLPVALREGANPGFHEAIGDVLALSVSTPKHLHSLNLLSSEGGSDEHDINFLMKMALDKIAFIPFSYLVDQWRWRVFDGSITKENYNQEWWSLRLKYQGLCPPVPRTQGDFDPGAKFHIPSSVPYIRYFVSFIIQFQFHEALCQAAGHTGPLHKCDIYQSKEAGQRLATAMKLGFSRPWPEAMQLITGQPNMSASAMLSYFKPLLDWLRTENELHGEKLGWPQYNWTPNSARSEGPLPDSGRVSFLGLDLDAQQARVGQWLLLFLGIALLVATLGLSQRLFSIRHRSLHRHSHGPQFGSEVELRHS

ACE [15] = biological target: T1, ACE; set-up: randomly assigned 9,297 high-risk patients; from tissue; host or cells: patients, in vivo; settings: cited from earlier work
ACE [16] = biological target: T1, ACE; set-up: randomly assigned 9,297 high-risk patients; from tissue; host or cells: patients, in vivo; settings: cited from earlier work; remark: listed apart in the source
TF mRNA = settings: obese mice, 10 to 20 weeks of age; cited from earlier work
rhesus monkeys = settings: atherogenic diet; cited from earlier work
rabbits = settings: atherogenic diet; cited from earlier work
U251.3 glioma cells = settings: soluble, 100 μg/ml; fibronectin 10 μg/ml; 24 and 48 hours; cited from earlier work
NF-κB [17] = settings: cited from earlier work
TF [18] = settings: in vitro treatment; cited from earlier work
neutrophils = settings: cited from earlier work
apoE(−/−) mice [19] = settings: 500 or 1,000 ng/min/kg, 1 month; cited from earlier work
[20] = tested on: apolipoprotein E deficient mice; settings: 0.1 ml of 10^−7M per mouse, intraperitoneally, once a day for 30 days; cited from earlier work

CC(C)CCC[C@@H](C)[C@H]1CC[C@H]2[C@@H]3C(=O)C=C4C[C@@H](O)CC[C@]4(C)[C@H]3CC[C@]12C [7-ketocholesterol]
GSH content (U937): lower GSH content

Cc1cn([C@H]2C[C@H](N=[N+]=[N-])[C@@H](CO)O2)c(=O)[nH]c1=O [AZT, Zidovudine]
mean log change from baseline in viral DNA over all time points (HIV-1 [1]): −0.05
change in viral DNA (HIV-1 [2]; week 80): increase
average ranking of viral DNA load (HIV-1 [3]): 2.74
average difference between expected and observed viral DNA copies (HIV-1 [4]): +317 copies

CNCCC(Oc1ccc(C(F)(F)F)cc1)c1ccccc1 (stereo not drawn) [Fluoxetine]
effect on body weight [5]: ^IIFluoxetine produces a transient weight loss leading to gain in body weight in the long term.

CCCCNC(=O)NS(=O)(=O)c1ccc(C)cc1 [Tolbutamide]
atherosclerosis [5]: ^IIITolbutamide induced atherosclerosis.

CC(=O)Oc1ccccc1C(=O)O [aspirin, Acetylsalicylic Acid]
LPS-induced translocation of c-Rel/p65 (c-Rel/p65): inhibited the LPS-induced translocation of c-Rel/p65
LPS-induced increase in TF mRNA and protein level (TF [6]): dose-dependently inhibited
increase in TF concentration compared to non-smoker mice (Western blotting) (TF [7]): 1.3±0.17 fold
TF immunoreactive area (TF [7]; smoker mice, 8 weeks): 6.5±4.5%
TF staining area in plaque (TF [8]; non-smokers): 2.0±2%
TF staining area in plaque (TF [8]; smokers): 4.4±4%
cell migration (leukocytes [9]): increased cell migration
migration of human lymphocytes (human lymphocytes): stimulated migration of human lymphocytes
increase of leukocyte migration relative to control values (leukocytes [10]): 20-70%
decrease in NF-κB binding activity in the aortas (LDLR(−/−) mice): 34%
decrease in the positive area for macrophages (LDLR(−/−) mice): 57%
increase in the positive area for SMC (LDLR(−/−) mice): 77%

Nc1ccn([C@H]2CC[C@@H](CO)O2)c(=O)n1 [ddC, zalcitabine]
mean log change from baseline in viral DNA over all time points (HIV-1 [1]): −0.1546
association with fat redistribution (FR) [11]: significantly associated with the absence of FR
average ranking of viral DNA load (HIV-1 [3]): 2.71

OC[C@@H]1CC[C@H](n2cnc3c(O)ncnc32)O1 [ddI, 2′,3′-dideoxyinosine]
Effect on HIV DNA (HIV-1 [2]; in vivo): ↓↓
association with fat redistribution (FR) [11]: significantly associated with absence of FR
average ranking of viral DNA load (HIV-1 [3]): 2.25
average difference between expected and observed viral DNA copies (HIV-1 [4]): −828 copies

CSCC[C@H](NC=O)C(=O)N[C@@H](CC(C)C)C(=O)N[C@@H](Cc1ccccc1)C(=O)O [fMLP, N-formylmethionyl-leucyl-phenylalanine]
increase in CD18 surface membrane concentration (CD18): 4 fold

O=C(O)c1cccnc1 [niacin]
decrease of Lp(a) (Lp(a)): 27%

CCOC(=O)[C@H](CCc1ccccc1)N[C@@H](C)C(=O)N1Cc2ccccc2C[C@H]1C(=O)O [quinapril]
NF-κB activity in atherosclerotic vessels (NF-κB [12]): decreased the NF-κB activity

CCOC(=O)[C@H](CCc1ccccc1)N[C@@H](C)C(=O)N1[C@H](C(=O)O)C[C@@H]2CCC[C@@H]21 [ramipril]
lesion area (apoE(−/−) mice [13]): 6,679±978 μm^2
changes in thickness of the common carotid artery wall, or carotid plaque height (ACE [14]): no significant difference
rate of death from cardiovascular causes (ACE [15]; 10 mg/day, average follow up 4.5 years): 6.1%
rate of cardiac arrest (ACE [15]; 10 mg/day): 0.8%
rate of complications related to diabetes (ACE [15]; 10 mg/day): 6.4%
rate of death from any cause (ACE [15]; 10 mg/day): 10.4%
rate of heart failure (ACE [15]; 10 mg/day): 9.1%
rate of myocardial infarction (ACE [15]; 10 mg/day): 9.9%
rate of revascularization procedures (ACE [15]; 10 mg/day): 16.3%
rate of stroke (ACE [15]; 10 mg/day): 3.4%
RR of cardiac arrest (ACE [15]; vs placebo): 0.62
RR of complications related to diabetes (ACE [15]; vs placebo): 0.84
RR of death from any cause (ACE [15]; vs placebo): 0.84
RR of death from cardiovascular causes (ACE [15]; vs placebo): 0.74
RR of heart failure (ACE [15]; vs placebo): 0.77
RR of myocardial infarction (ACE [15]; vs placebo): 0.80
RR of revascularization procedures (ACE [15]; vs placebo): 0.85
RR of stroke (ACE [15]; vs placebo): 0.68
progression slope of the mean maximum carotid intimal medial thickness (IMT) (ACE [16]; 10 mg/day, 4.5 years): 0.0137±0.0024 mm/year
decrease of progression of carotid intima media thickness (ACE [16]; at 4.5 years): 0.008 mm per year

CCOC(=O)[C@H](CCc1ccccc1)N[C@H]1CS[C@H](c2cccs2)CN(CC(=O)O)C1=O [temocapril]
TF mRNA in cardiac tissue (TF mRNA): attenuated the increase in TF mRNA

CN1CCN(CCCN2c3ccccc3Sc3ccc(C(F)(F)F)cc32)CC1 [trifluoperazine]
rate of lesion formation (rhesus monkeys): decreased the rate of lesion formation
rate of lesion formation (rabbits): decreased the rate of lesion formation

TNC: a large ECM glycoprotein secreted by a variety of cells
migration distance (U251.3 glioma cells): significantly increased migration distance

angiotensin II (DRVYIHPF; Angiotensin-2; UniProt P01019 25-32, looked up)
NF-κB activation (NF-κB [17]): increased NF-κB activation
TF antigen and mRNA (TF [18]): dose-depended increase in TF antigen and mRNA
velocity (neutrophils; concentration of 10^−11): 88 % of maximum velocity
concentration of peak velocity (neutrophils; neutrophils): 10^−10
development of AAA (apoE(−/−) mice [19]): promotes the development of AAA
rate of atherosclerotic lesion formation in the thoracic aorta (apoE(−/−) mice [19]): increases the rate of atherosclerotic lesion formation
lesion area [20]: 5,000 μm^2
